The values below come from patent US5519006A, “Phosphonated arylethanolamine compounds with anti-hyperglycemic and/or anti-obesity activity” (SmithKline Beecham plc, priority 1992, dated 1996).

By Ki is commonly meant the dissociation constant of the complex between target and ligand, obtained from inhibition or displacement. Lower therefore signals higher affinity. One may read the EC50 as the midpoint of the concentration-response curve.

The target of one experiment is T1, Rat β2 adrenoceptor (Rattus norvegicus, UniProt P10608).
T1 construct: Rat uterine horns were removed and bisected longitudinally; from tissue; host or cells: rat uterine horns (uterine strips)
The experiment is described as follows: β2-Adrenoceptor agonism, inhibition of contraction of K+-pre-contracted uterine strips. The experiment is classed as cell-based. To be noted: pre-contracted with 40 mM K+. The protocol:
(§1) Agonist Activity at Rat β1 and β2 Adrenoceptors In Vitro
Rat uterine horns were removed and bisected longitudinally. Each tissue was tied to a glass tissue holder and placed in Krebs-Henseleit solution in a 30 ml organ bath as before. Tissues were placed under a resting tension of 1 g and allowed to equilibrate. Each uterine strip was pre-contracted by the addition of 40 mM K^+ to the bath to produced a steady tonic contraction. β-agonists were then added to the bath in a cumulative manner and results were expressed as percentage inhibition of contraction.
(§2) Agonist EC50 (atria) and IC50 (uteri) were calculated as the concentration of agonist producing 50% of their maximum increase in atrial rate or uterine relaxation. Relative intrinsic activity expressed as the maximal responses to test agonists relative to isoprenaline (=1.0) in both atria and uteri.

A further experiment addresses T2, Rat β1 adrenoceptor (Rattus norvegicus, UniProt P18090).
T2 construct: Spontaneously beating right atria were removed; from tissue; host or cells: right atria of female Sprague-Dawley rats
The experiment can be described thus: β1-Adrenoceptor agonism, increase in rate of spontaneously beating right atria. Format: cell-based, Rat (female Sprague-Dawley). To be noted: in vitro, 37° C., Krebs-Henseleit solution. The protocol: as §1
Female Sprague-Dawley rats (150-250 g) were killed by a blow to the head and exsanguinated. Spontaneously beating right atria were removed by the method of Broadley and Lumley (1977) and mounted on a glass tissue holder. Each tissue was placed in 30 ml organ baths at 37° C. containing Kreb's-Henseleit solution. Each atrium was attached to an isometric transducer by cotton and placed under an initial resting tension of 1 g. Rate recordings from the spontaneous beating atria were obtained from the tension signal using a Lectromed Type 4522 ratemeter. All traces were recorded on a Lectromed M4 chart recorder. β-adrenoceptor agonists were then added to the Krebs medium in a cumulative fashion and the results expressed as a percentage increase in atrial rate.
as §2

The next experiment deals with Rat white adipocytes. The experiment can be described thus: Lipolysis stimulated in rat white adipocytes (glycerol release). Format: cell-based. The conditions noted are these: Adipocyte, 0.5 h, 30 minutes. The protocol:
Rat white adipocytes were prepared by collagenase digestion as described by Rodbell (1964) with the modification of Honnor et al. (1985), in that adenosine (200 nM) was included in the preparation to inhibit basal lipolysis.
Lipolysis stimulated by β-agonists was measured over 30 minutes in medium where the adenosine concentration was controlled; the medium included (-)-N^6 -(2-phenylisopropyl)adenosine (100 nM)+deaminase as decribed by Honnor et al. (1985). The incubation was stopped by addition of trichloracetic acid (0.2 ml of 10% w/v) to 1 ml of cells. Glycerol was measured by the fluorimetric method of Boobis and Maugham (1983).

SMILES strings stand for the structures.

T2 sequence (P18090 whole entry): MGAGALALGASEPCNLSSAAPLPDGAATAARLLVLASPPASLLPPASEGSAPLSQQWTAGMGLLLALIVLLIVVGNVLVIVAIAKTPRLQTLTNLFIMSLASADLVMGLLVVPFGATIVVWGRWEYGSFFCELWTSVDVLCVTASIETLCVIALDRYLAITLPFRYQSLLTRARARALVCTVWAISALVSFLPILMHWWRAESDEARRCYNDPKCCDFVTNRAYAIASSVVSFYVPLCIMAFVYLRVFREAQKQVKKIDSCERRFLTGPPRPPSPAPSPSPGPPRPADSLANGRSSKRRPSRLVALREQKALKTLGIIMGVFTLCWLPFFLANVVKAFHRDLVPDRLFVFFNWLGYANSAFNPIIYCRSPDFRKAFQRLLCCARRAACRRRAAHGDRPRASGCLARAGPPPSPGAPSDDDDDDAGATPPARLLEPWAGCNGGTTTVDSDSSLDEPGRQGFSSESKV
T1 sequence (P10608 whole entry): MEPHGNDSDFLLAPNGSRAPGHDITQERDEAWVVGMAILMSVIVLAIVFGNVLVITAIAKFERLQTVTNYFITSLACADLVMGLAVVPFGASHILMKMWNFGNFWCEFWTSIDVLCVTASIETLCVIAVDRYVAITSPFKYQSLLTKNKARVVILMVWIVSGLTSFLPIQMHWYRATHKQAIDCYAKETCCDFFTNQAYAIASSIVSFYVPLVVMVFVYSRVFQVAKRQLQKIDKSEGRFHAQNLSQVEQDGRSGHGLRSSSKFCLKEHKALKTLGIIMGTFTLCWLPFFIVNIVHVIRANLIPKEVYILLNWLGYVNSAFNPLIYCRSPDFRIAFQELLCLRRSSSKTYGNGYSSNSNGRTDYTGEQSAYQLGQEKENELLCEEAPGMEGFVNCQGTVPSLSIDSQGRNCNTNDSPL

Turning to `CCOP(=O)(O)COc1ccc(C[C@@H](C)NC[C@H](O)c2cccc(Cl)c2)cc1` (relative stereo) [Example 2, (RR,SS)-Sodium Ethyl 4-[2-[2-(3-chlorophenyl)-2-hydroxyethylamino]propyl]phenoxymethylphosphonate], the results for the Ki at Rat β2 adrenoceptor and on Rat β1 adrenoceptor were 10000 nM and 37600 nM, respectively. This compound also gave an EC50 in the experiment with Rat white adipocytes of 0.077 µM. Besides, the Emax with Rat white adipocytes (read-out: Intrinsic Activity) amounted to 95%.
